By Ki is commonly meant a dissociation constant, usually derived from enzyme kinetics or from competition with a known ligand. For orientation: IC50 means the concentration needed to halve the response being measured. As a reminder, the EC50 is the concentration at which the effect is half-maximal. The AC50 is the concentration at which the activity in the assay is half-maximal. Usually CC50 stands for the concentration giving 50% cytotoxicity.

Assay [1] has as its target Dual specificity protein phosphatase 3 (Homo sapiens, UniProt P51452). Put plainly: inhibition constants for human DUSP3 – biochemical, colorimetric, SAR follow-up (AID 2004).
Assay [2] in a line: HEK-293T viability loss after treatment – luminescence, T-cell screen hits, cytotoxicity control for TCR NF-kB inhibitor project, dose response (AID 489026).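 Note: cells exposed to compound about 14 hours before the viability readout.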 It is filed as functional, cell-based.
The subject of assay [3] is BJ. Put plainly: cells. It is filed as functional, cell-based. The following applies: Homo sapiens.
Assay [4] relates to BJ. Put plainly: BJ-TERT fibroblast viability loss – cell-based, RAS-independent, luminescence, dose response (AID 1933). It is filed as functional. The conditions noted are these: Homo sapiens.
A short description of assay [5]: DRD fibroblast viability loss – cell-based, non-viral oncogenic, luminescence, dose response (AID 1934). It is filed as functional. The following applies: Homo sapiens.
Assay [6] concerns BJ. Put plainly: BJ-TERT-LT-ST fibroblast viability loss – cell-based, RAS-independent, luminescence, dose response (AID 1935).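 Note: BJ fibroblasts immortalized with TERT plus LT and ST oncogenes.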 It is filed as functional. The conditions noted are these: Homo sapiens.
A short description of assay [7]: inhibition of ADAM10 peptide cleavage – biochemical, FRET peptide substrate, recombinant human ADAM10, selectivity assay for ADAM17 exosite inhibitor project, dose response (AID 743259).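 Note: ADAM10 enzyme cleaving a FRET peptide substrate.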
Assay [8] is described as follows: cells. It is filed as functional, cell-based.
The target in assay [9] is Disintegrin and metalloproteinase domain-containing protein 17 (Homo sapiens, UniProt P78536). Put plainly: exosite inhibitors of ADAM17, dose response, biochemical (AID 743260).
Disintegrin and metalloproteinase domain-containing protein 17, sequence (P78536 whole entry, the tested form may be a part): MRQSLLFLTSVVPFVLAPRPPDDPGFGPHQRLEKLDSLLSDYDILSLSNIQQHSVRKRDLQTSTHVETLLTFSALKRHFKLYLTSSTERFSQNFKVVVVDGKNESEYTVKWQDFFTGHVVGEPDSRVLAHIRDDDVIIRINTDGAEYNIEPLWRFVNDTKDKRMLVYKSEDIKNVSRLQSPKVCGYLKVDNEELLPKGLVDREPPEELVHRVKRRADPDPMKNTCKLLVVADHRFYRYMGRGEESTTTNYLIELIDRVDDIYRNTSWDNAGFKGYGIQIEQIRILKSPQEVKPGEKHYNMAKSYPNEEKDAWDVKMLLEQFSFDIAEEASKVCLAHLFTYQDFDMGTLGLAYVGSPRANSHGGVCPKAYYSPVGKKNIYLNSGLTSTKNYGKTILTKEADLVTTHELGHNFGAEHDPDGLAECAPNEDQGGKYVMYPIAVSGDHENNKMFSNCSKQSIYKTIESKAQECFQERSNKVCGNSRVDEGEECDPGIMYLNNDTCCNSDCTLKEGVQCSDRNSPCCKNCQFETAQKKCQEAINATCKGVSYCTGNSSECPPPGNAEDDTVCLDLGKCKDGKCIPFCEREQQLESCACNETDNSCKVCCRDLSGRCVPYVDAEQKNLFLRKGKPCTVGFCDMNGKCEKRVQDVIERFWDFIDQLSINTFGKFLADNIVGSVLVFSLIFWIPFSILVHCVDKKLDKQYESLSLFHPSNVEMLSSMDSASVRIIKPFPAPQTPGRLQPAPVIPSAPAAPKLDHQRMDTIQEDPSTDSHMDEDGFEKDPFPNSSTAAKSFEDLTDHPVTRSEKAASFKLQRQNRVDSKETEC
A short description of assay [10]: alpha-synuclein stem-loop translation blockers – luminescence, H4 neuroglioblastoma cells, dose confirmation, confirmation (AID 2454).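 Note: H4 neuroglioblastoma cells carrying an alpha-synuclein 5'UTR luciferase reporter; potency for inhibition of the luciferase signal.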 It is filed as functional, cell-based.
A short description of assay [11]: luciferase reporter signal reduction – luminescence, H4-C neuroglioblastoma cells, dose response (AID 2458).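 Note: H4 neuroglioblastoma cells stably carrying a luciferase reporter gene fusion.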 It is filed as functional, cell-based.
Assay [12] in a line: alpha-synuclein stem-loop luciferase translation blockers – H4 neuroglioma cells, luminescence, confirmation (AID 1988). It is filed as functional, cell-based.
The nature of assay [13]: Luminescence Cell-Based Dose Response HTS to Identify Inhibitors of 5'UTR Stem-Loop Driven Prion Protein mRNA Translation in H4 Neuroglioblastoma Cells. [Related pubchem assays: 1827 (Project Summary), 1813 (Primary HTS)]. It is filed as functional.
In assay [14] the target is Scavenger receptor class B member 1 (Mus musculus, UniProt Q61009). In words: mouse SR-BI DiI-HDL uptake blockers – ldlA[mSR-BI] cells, fluorescence, cherry pick, dose response (AID 493194).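 Note: cellular uptake of fluorescent DiI-labeled HDL measured as cell fluorescence.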 It is filed as functional, cell-based.
Scavenger receptor class B member 1, sequence (Q61009 whole entry): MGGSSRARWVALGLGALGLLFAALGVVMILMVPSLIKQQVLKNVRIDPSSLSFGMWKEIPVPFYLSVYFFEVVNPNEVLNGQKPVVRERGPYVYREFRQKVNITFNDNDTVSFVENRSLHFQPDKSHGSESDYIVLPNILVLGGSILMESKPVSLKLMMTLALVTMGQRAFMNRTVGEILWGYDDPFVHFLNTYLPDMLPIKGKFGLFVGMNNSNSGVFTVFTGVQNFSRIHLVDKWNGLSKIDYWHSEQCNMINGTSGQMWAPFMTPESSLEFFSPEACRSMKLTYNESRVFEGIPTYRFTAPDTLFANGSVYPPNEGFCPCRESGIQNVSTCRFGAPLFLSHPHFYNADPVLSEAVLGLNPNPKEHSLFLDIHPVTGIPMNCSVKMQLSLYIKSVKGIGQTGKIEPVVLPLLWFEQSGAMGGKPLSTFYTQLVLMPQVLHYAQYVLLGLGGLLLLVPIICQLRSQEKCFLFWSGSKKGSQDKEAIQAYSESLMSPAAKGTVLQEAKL
Assay [15] in a line: A Cell Based Assay for the Identification of Probe candidate Compounds with Anti- Venezuelan Equine Encephalitis virus. [Related pubchem assays: 2409, 2419, 1621, 2238, 2405, 2024, 2065, 2402, 2414, 1635, 1650, 2244 ]. It is filed as functional.
In assay [16] the test system is Vero. In words: inhibition of WNV-induced cytopathic effect – cell-based, CPE readout (AID 1621). The conditions noted are these: Chlorocebus sabaeus. It is filed as functional.
Assay [17] concerns Vero. In words: antiviral protection of cells from WNV – synthesized analogs, SAR follow-up (AID 2238). The following applies: Chlorocebus sabaeus. It is filed as functional, cell-based.
For assay [18], the system named is Vero. Put plainly: Vero cell viability after compound exposure – synthesized analogs, set II, cytotoxicity control for West Nile virus antiviral project, SAR follow-up (AID 2402). It is filed as functional. The following applies: Chlorocebus sabaeus.
Assay [19] deals with Vero. Put plainly: Vero 76 cell viability after compound exposure – Vero 76 cells, synthesized analogs, cytotoxicity control for West Nile virus antiviral project, SAR follow-up (AID 2414). It is filed as functional. The conditions noted are these: Chlorocebus sabaeus.
Assay [20] concerns Vero. Put plainly: antiviral activity against WNV, CPE read-out – cell-based (AID 2419). It is filed as functional. The following applies: Chlorocebus sabaeus.
The test system of assay [21] is Vero. Put plainly: host cell viability loss, Vero E6 – synthesized analogs, cytotoxicity control for West Nile virus antiviral project, SAR follow-up (AID 2244). It is filed as functional. The conditions noted are these: Chlorocebus sabaeus.
Assay [22] addresses T1, Rac GTPase-activating protein 1 (Homo sapiens, UniProt Q9H0H5).
T1 sequence (Q9H0H5 whole entry): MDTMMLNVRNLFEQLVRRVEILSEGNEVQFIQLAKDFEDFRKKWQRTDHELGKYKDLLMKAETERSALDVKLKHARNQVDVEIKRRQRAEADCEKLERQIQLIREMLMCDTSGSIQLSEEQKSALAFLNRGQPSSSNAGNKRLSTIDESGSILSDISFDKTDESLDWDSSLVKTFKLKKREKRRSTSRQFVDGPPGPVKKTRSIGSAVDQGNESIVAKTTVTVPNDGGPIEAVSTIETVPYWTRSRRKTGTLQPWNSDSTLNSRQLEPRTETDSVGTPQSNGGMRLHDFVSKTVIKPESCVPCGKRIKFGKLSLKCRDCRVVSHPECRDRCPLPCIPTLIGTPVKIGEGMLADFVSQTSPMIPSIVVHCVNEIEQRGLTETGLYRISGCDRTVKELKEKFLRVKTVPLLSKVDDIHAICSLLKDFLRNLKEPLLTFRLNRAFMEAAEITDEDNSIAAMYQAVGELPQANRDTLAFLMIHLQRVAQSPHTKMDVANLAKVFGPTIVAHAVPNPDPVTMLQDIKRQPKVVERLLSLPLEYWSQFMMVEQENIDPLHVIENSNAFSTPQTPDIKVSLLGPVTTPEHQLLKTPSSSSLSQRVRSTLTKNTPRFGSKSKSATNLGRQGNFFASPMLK
Put plainly: blockers of MgcRacGAP-driven Rac1 GTP hydrolysis – biochemical, ADP Hunter fluorescence, primary and confirmatory, confirmation (AID 624330). It is filed as functional.

Assay [23] has as its system HEK293. Put plainly: inhibition of NOD1-driven NF-kB reporter – cell-based, luminescence, uHTS, primary screen (AID 1578). It is filed as functional. The conditions noted are these: Homo sapiens.
Assay [24] in a line: NIH3T3 cell viability loss – ATP luminescence, mouse fibroblasts, counter-screen, dose response (AID 2010).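 Note: cells exposed to compound for about 90 hours before reading.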 It is filed as functional, cell-based. For orientation: A counterscreen serves to expose hits that act by an unwanted route or on another target.
Assay [25] in a line: Trypanosoma cruzi growth suppression in host cells – NIH3T3 host cells, beta-gal luminescence, confirmation (AID 2044).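 Note: intracellular parasites grown in NIH/3T3 mouse fibroblasts as host cells; luminescent beta-galactosidase reporter signal from transgenic T. cruzi replicating inside host cells; inhibitors lower the luminescence signal.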 It is filed as functional, cell-based.
In assay [26] the target is Sphingosine 1-phosphate receptor 1 (Homo sapiens, UniProt P21453). It is filed as functional.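 Note: Tango beta-arrestin reporter U2OS cells stimulated with S1P near its EC80; inhibitor potency meaning antagonism of receptor activation by the natural agonist.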
Sphingosine 1-phosphate receptor 1, sequence (P21453 whole entry): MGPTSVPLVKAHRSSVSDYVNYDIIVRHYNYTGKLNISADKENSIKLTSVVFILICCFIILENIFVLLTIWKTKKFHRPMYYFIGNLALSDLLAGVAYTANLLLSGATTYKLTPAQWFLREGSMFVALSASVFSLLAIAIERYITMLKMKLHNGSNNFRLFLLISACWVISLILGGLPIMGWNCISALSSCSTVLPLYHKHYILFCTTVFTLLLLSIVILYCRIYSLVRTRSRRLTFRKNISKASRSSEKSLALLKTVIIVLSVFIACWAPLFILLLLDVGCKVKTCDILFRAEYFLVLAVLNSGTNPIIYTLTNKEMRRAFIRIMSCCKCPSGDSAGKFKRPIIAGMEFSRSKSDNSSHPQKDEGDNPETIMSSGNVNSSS
Assay [27] has as its system Vero. In words: Vero E6 cell cytotoxicity, dose response, cytotoxicity control (AID 540298). The conditions noted are these: Chlorocebus sabaeus. It is filed as functional.
Assay [28] deals with HEK293. Put plainly: cells. The following applies: Homo sapiens. It is filed as functional, cell-based.
Assay [29] has as its target T2, Sphingosine 1-phosphate receptor 4 (Homo sapiens, UniProt O95977).
T2 sequence (O95977 whole entry): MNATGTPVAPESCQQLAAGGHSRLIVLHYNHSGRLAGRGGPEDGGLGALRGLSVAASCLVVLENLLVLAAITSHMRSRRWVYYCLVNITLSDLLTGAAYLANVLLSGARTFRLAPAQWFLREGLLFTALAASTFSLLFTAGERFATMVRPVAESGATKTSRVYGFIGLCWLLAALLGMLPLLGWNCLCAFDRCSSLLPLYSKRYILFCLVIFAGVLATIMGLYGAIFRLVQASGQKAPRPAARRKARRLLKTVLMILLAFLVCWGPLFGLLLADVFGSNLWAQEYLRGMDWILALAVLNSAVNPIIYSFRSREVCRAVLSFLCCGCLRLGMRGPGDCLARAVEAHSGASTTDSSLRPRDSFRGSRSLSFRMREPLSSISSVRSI
In words: Fluorescence dose response cell-based high throughput screening assay for antagonists of the Sphingosine 1-Phosphate Receptor 4 (S1P4). [Related pubchem assays: 1524 (Confirmation in triplicates.), 1510 (Primary screen.)]. It is filed as functional.

Assay [30] has as its system HeLa. In words: Cytotoxicity counterscreen assay for transcriptional activators of heat shock protein 70 (Hsp70). [Related pubchem assays: 1203, 1252 ]. It is filed as functional. The following applies: Homo sapiens.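 Note: cells exposed to compound for 16 hours before readout.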
In assay [31] the target is Neurotensin receptor type 1 (Homo sapiens, UniProt P30989). It is filed as functional.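 Note: Image-based confirmatory dose-response assay measuring agonist activity at NTR1; NTR1-expressing U2OS osteosarcoma cells imaged for beta-arrestin GFP spot formation; agonist potency where compounds increase beta-arrestin recruitment.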
Neurotensin receptor type 1, sequence (P30989 whole entry): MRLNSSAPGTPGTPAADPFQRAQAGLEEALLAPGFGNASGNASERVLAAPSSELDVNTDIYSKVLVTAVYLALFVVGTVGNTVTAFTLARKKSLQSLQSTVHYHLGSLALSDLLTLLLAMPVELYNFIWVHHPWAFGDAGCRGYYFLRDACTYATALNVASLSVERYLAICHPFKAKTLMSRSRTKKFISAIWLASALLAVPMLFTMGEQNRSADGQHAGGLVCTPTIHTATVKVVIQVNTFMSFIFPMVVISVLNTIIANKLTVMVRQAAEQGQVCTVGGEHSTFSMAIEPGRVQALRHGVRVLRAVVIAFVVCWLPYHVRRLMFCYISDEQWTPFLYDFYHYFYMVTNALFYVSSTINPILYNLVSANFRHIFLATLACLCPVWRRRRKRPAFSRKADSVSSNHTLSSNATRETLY
The nature of assay [32]: viability loss in HeLa cells – cytotoxicity control for MgcRacGAP inhibitor project, dose response (AID 624300). It is filed as functional.
Assay [33] has as its target G-protein coupled receptor 55 (Homo sapiens, UniProt Q9Y2T6). In words: selective activators of receptor GPR55 – imaging, U2OS cells, beta-arrestin-GFP redistribution, primary screen (AID 1961). It is filed as functional.
Assay [34] deals with MDCK. In words: antiviral activity against H1N1 influenza, dose response, cell-based, strain KY136 (AID 540257). It is filed as functional. The conditions noted are these: Canis lupus familiaris.
Assay [35] deals with HEK293. Put plainly: cells. It is filed as functional, cell-based. The following applies: Homo sapiens. The source holds these as a separate data set.
Assay [36] addresses X-box-binding protein 1 (Homo sapiens, UniProt P17861). It is filed as functional, Cricetulus griseus.
In assay [37] the target is Nonstructural protein 1 (Influenza A virus, UniProt Q194T2). It is filed as functional, Influenza A virus (A/California/07/2009(H1N1)).
Nonstructural protein 1, sequence (Q194T2 whole entry): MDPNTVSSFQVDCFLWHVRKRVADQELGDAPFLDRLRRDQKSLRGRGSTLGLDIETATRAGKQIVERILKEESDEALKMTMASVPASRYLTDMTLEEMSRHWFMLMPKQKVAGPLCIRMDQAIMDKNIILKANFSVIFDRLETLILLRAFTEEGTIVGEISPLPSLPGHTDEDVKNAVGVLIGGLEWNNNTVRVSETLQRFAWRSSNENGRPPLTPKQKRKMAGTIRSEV
The subject of assay [38] is HEK293. In words: NOD2 signaling inhibitors in MDP-stimulated cells, cell-based, uHTS, luminescence (AID 2001). It is filed as functional. The conditions noted are these: Homo sapiens.
Assay [39] has as its system MDCK. Put plainly: MDCK cell cytotoxicity, dose response, cytotoxicity control (AID 540296). It is filed as functional. The following applies: Canis lupus familiaris.

The source made the active and inactive calls.
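Throughout, for Absolute IC50 (XBP1): confirmatory dose-response counter-screen serving a CHOP assay.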

G-protein coupled receptor 55, sequence (Q9Y2T6 whole entry): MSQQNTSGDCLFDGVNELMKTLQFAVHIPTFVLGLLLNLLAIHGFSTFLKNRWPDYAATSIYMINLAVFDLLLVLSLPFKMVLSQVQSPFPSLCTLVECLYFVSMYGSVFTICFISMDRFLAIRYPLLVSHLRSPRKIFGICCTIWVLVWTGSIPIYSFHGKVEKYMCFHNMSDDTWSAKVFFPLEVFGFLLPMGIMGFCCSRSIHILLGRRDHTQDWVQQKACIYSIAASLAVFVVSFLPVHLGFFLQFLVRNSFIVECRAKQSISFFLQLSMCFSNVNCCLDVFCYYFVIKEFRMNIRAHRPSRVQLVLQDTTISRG
X-box-binding protein 1, sequence (P17861 whole entry): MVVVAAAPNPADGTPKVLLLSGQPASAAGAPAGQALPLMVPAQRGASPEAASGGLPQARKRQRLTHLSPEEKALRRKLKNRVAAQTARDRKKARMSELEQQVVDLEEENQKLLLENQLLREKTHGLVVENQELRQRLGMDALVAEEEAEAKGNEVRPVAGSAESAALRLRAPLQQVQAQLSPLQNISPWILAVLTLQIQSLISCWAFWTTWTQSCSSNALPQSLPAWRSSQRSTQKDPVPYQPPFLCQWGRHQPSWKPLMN
Dual specificity protein phosphatase 3, sequence (P51452 whole entry): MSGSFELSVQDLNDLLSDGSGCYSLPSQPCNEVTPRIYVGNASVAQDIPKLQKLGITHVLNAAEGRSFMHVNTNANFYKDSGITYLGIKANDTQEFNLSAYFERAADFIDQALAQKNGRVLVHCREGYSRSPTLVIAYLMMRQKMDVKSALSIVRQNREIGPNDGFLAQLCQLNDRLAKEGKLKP

Consider `O=C1NC(=S)N(c2ccc(Cl)cc2)C(=O)/C1=C/c1ccc(-c2ccccc2C(=O)O)o1`, for which, in assay [1], the Ki is 36.6 µM (inactive).

Regarding `Cc1cc(C)c(S(=O)(=O)Nc2ccc3c4c(cccc24)CC3)c(C)c1`, the IC50 in [2] is > 80 µM (inactive); in assay [7], > 69.5 µM (inactive); in assay [9] it was > 69.5 µM (inactive). For the same compound, the EC50 in assay [3] was 2.1 µM (inconclusive); in assay [4] it was 0.288 µM (active); in assay [5], 0.383 µM (inconclusive); in assay [6], 0.246 µM (inconclusive); in assay [8] it was 2.97 µM (active); in assay [10] it was 1.2 µM (active). Moreover, the EC50 in assay [11] was 1.06 µM (active); in [12] it was < 0.1 µM (active); in [13] it was 9.52 µM (active).

On to `COc1cc(NC(=O)c2cc(-c3ccccc3Cl)on2)cc(OC)c1OC`, for which, in assay [14], the AC50 was 32 µM (active).

`CN(C)CCCN=C(S)N1CCN(c2nc(-c3ccccc3)cs2)CC1`: the IC50 in assay [15] is 6.88 µM (active); in assay [16], 17.5 µM (active); in assay [17] it was > 20 µM (active); in assay [20], > 12.5 µM (active). Moreover, the CC50 was 15.1 µM (active) in assay [18], 13.9 µM (active) in assay [19] and 25 µM (active) in [21].

For `COC(=O)c1ccc2c(c1)C(C)(C)C(/C=C/c1ccccc1O)=[N+]2C.[I-]`, the IC50 is 21 µM (active) in assay [22]; 4.76 µM (active) in assay [26]; 5.74 µM (active) in assay [28]; 0.798 µM (active) in [29]; 8.58 µM (active) in assay [34]; > 20 µM (inactive) in [35]. Moreover, the figures for the IC50 in assay [37] and in [38] were 22.7 µM (active) and 11.7 µM (inactive), respectively. Moreover, the EC50 was 7.83 µM (active) in [23]; 4.69 µM (active) in assay [24]; 0.584 µM (active) in [25]; 18.3 µM (active) in assay [31]; 2.75 µM (active) in [33]. For the same compound, the CC50 in assay [27] is 4.79 µM (active); in [30] it was 8.49 µM (active); in assay [32], 30.9 µM (active); in assay [39] it was 5.8 µM (active). The “Absolute IC50 (XBP1)” value in assay [36] came out at 10 µM.

The values above are taken from ChEMBL document CHEMBL1201862, “PubChem BioAssay data set” (2004).
